Assay results from patent US20130251644A1, “Cyclodextrin-Based Microemulsions, and Dermatological Uses Thereof” (PRECISION DERMATOLOGY, INC., priority 2012, published 2013).

Key:
[1] = cited from earlier work
[2] = Solubility/dispersibility of retinol in the Labrasol-HPGCD-water systems and in water; format: physicochemical
Description: Microemulsion preparation: Any two components (examples: Labrasol®-water, HPXCD-water, or Labrasol®-HPXCD) were mixed (in different ratios) in different scintillation vials and then the third component was titrated to each vial until a clear-to-turbid or turbid-to-clear transition occurred (in simple situations). Finally wt % percentages data for each component (Labrasol®, water, and cyclodextrin) were plotted to construct the ternary phase diagram.
Cyclodextrin used: hydroxypropyl-X-cyclodextrin (X=alpha, beta, or gamma).
Any two components (examples: Labrasol®-water, cyclodextrin-water, or Labrasol®-HPBCD) were mixed (in different ratios) in different scintillation vials and then the third component was titrated to each vial until a clear-to-turbid or turbid-to-clear transition occurred (in simple situations). Finally wt % percentages data for each component (Labrosol, water, and cyclodextrin) were plotted to construct the ternary phase diagram.

amount of retinol that can be incorporated into the cyclodextrin-based microemulsions ([2]; cyclodextrin-based microemulsion systems): greater than 1.0 wt %
miscibility in Labrasol®-HPGCD-water microemulsion system ([2]; final retinol concentration 1.2%, clear transparent system (vials 8 and 1, FIG. 4(b), 4(c))): complete miscibility
Compound: CC1=C(/C=C/C(C)=C/C=C/C(C)=C/CO)C(C)(C)CCC1 [solid retinol, Retinol]
miscibility in water [1]: immiscible in water
